From patent publication US11413278B2, “Compounds and methods for promoting stress resistance” (priority 2015, dated 2022)
Entries after “also recorded” stand apart in the source; their conditions may differ.

How the values were obtained:
NRF2 = experiment: in vitro; type: cell-based, human; conditions: for NRF2-dependency for H2O2-resistance, at 10 uM - with H2O2, 2nd experiment: experiment 2 (2nd); for NRF2-dependency for H2O2-resistance, at 10 uM - with H2O2, 2nd experiment / NRF2-dependency for H2O2-resistance, at 10 uM (experiment 3) - with & without H2O2 / NRF2-dependency for H2O2-resistance (experiment 3) / NRF2-dependency for H2O2-resistance, 2nd experiment / Assay 17: NRF2-dependency for H2O2-resistance / NRF2-dependency for H2O2-resistance, at 10 uM - with H2O2, 1st experiment / NRF2-dependency for H2O2-resistance, 1st experiment: 10 uM; for NRF2-dependency for H2O2-resistance (experiment 3): with & without H2O2, NRF2 knockdown in WI-38 cells; for NRF2-dependency for H2O2-resistance (experiment 3) / NRF2-dependency for H2O2-resistance, 2nd experiment / NRF2-dependency for H2O2-resistance, 1st experiment: YES = resistance reduced by at least 50%, partial = 25% to 50%; for NRF2-dependency for H2O2-resistance, 2nd experiment / NRF2-dependency for H2O2-resistance, 1st experiment: with H2O2, NRF2 knockdown in WI-38 cells; for Assay 17: NRF2-dependency for H2O2-resistance: YES/NO; for NRF2-dependency of H2O2-resistance (NRF2 siRNA knockdown): at least 2 of 3 independent experiments; for NRF2-dependency for H2O2-resistance, at 10 uM - with H2O2, 1st experiment: experiment 1 (1st); for Reduction of H2O2-resistance capacity upon NRF2 knockdown, on average: 3 of 3 experiments
Experimental: For qPCR analysis, WI-38 cells were treated with small molecules (at 10 μM) (biological quadruplicates) for 24 hrs and processed for RNA isolation and reverse transcription (RT) with the Cells-to-Ct Kit (Life Technologies), following manufacturer's instructions. RT products were diluted with H2O and used for qPCR analysis on an ABI 7300 system (Life Technologies) (technical triplicates). Relative expression levels of target genes were normalized to the genes B2M, PPIA and GAPDH. To knock down the expression of FOXO3 or NRF2, WI-38 cells were transfected, using the RNAiMAX reagents (Life Technologies), with siRNA oligos (at 10 nM final concentration, 10 ml culture medium) for FOXO3 (Life Technologies) or NRF2 (Integrated DNA Technologies) on 10-cm petri dishes for 36 hrs, and then detached and aliquoted onto 96-well (for qPCR analysis) or 384-well plates (for H2O2-stress treatment). ˜24 hrs later, small molecules were introduced and incubated with cells for 24 hrs. Cells were then either processed with the Cells-to-Ct Kit to prepare RT products for qPCR analysis or subjected to H2O2 (700 μM) for 3 hrs and assayed for viability. The knockdown efficiency of FOXO3 or NRF2 was checked at 36 hrs post-transfection and at the end as well.
For qPCR analysis, WI-38 cells were treated with small molecules (at 10 μM) (biological quadruplicate) for 24 hrs and processed for RNA isolation and reverse transcription (RT) with the Cells-to-Ct Kit (Life Technologies), following manufacturer's instructions. RT products were diluted with H2O and used for qPCR analysis on a LightCycler 480 system (Roche) (technical triplicates). Relative expression levels of target genes were normalized to the genes B2M, PPIA and GAPDH. To knock down the expression of FOXO3 or NRF2, WI-38 cells were transfected with siRNA oligos (at 10 nM final concentration) for FOXO3 (Life Technologies) or NRF2 on 10-cm petri dish for 36 hrs, and then detached and aliquoted onto 96-well plates. ˜24 hrs later, small molecules were introduced and incubated with cells for 24 hrs. Cells were then processed with the Cells-to-Ct Kit to prepare RT products for qPCR analysis. The knockdown efficiency of FOXO3 or NRF2 was checked at 36 hrs post-transfection and at the end as well.
Of these, O15 and O20 consistently (in 3 of 3 experiments) required NRF2 to promote H2O2-resistance, and their resistance capacities were reduced by ˜90% on average upon NRF2 knockdown under conditions tested.

[1] = tested on: HTB-178 lung tumor cells (EGFR+, PIK3CA+, RB1−, TP53−); experiment: Killing effects on HTB-178 tumor cells; type: cell-based, human; conditions: for Assay 21: Potential killing effects on HTB-178 tumor cells: 10 uM, YES/NO
human protein targets = conditions: PubChem database queries; cited from earlier work

Row | Structure (SMILES) | J = NRF2-dependency for H2O2-resistance (NRF2; score) | J = NRF2-dependency for H2O2-resistance (NRF2; summary score) | NRF2-dependency for H2O2-resistance, at 10 uM - with H2O2, 2nd experiment (NRF2) | NRF2-dependency for H2O2-resistance, 2nd experiment (NRF2) | Assay 17: NRF2-dependency for H2O2-resistance (NRF2) | further results
1 | CCc1ccc(Oc2nc3ccccn3c(=O)c2/C=C(\C#N)C(=O)NCc2ccco2)cc1 [Gr-5B] | 0 | 0 | – | – | – | –
2 | O=C(Nc1cccc(C(F)(F)F)c1)c1ccc([N+](=O)[O-])o1 [Gr-1E] | 0 | 0 | – | – | – | –
3 | O=C(/C=C/c1cn(-c2ccccc2)nc1-c1cccnc1)c1ccccc1 [Gr-6B] | 1 | 1 | 2nd, partial. | partial. | YES | NRF2-dependency for H2O2-resistance, at 10 uM (experiment 3) - with & without H2O2 (NRF2): YES; NRF2-dependency for H2O2-resistance (experiment 3) (NRF2): YES; NRF2-dependency of H2O2-resistance (NRF2 siRNA knockdown) (NRF2): significantly attenuate
4 | O=C(NCc1cccnc1)/C(=C\c1ccc(Br)cc1)S(=O)(=O)c1ccccc1 [Gr-7B] | 1 | 1 | 2nd, partial. | partial. | YES | NRF2-dependency for H2O2-resistance, at 10 uM - with H2O2, 1st experiment (NRF2): 1st, partial;; NRF2-dependency for H2O2-resistance, 1st experiment (NRF2): partial;; NRF2-dependency of H2O2-resistance (NRF2 siRNA knockdown) (NRF2): significantly attenuate; Assay 21: Potential killing effects on HTB-178 tumor cells [1]: YES; Toxicity / viability of HTB-178 lung tumor cells ([1]; 10 μM, preliminary data): exerted more pronounced toxicity; also recorded: significantly reduce the viability; Potential killing effects on HTB-178 tumor cells, 1st ([1]; Assay 1(y), at 10 uM): YES;
5 | Oc1ccccc1-c1noc(-c2ccccc2O)n1 [O27] | 0 | 0 | – | – | – | Assay 21: Potential killing effects on HTB-178 tumor cells [1]: YES
6 | O=C(Nc1ccc(Cl)c(Cl)c1)c1ccc([N+](=O)[O-])o1 [Gr-1G] | 0 | 0 | – | – | – | NRF2-dependency for H2O2-resistance, at 10 uM - with H2O2, 1st experiment (NRF2): 1st, YES;; NRF2-dependency for H2O2-resistance, 1st experiment (NRF2): YES;
7 | O=C(Nc1cc(C(F)(F)F)ccc1Cl)c1ccc([N+](=O)[O-])o1 [Gr-1B] | 0 | 0 | – | – | – | –
8 | CCCN1C/C(=C\c2ccc(F)cc2)C(=O)/C(=C/c2ccc(F)cc2)C1 [O15] | 1 | 1 | 2nd, YES. | YES. | YES | NRF2-dependency for H2O2-resistance, at 10 uM - with H2O2, 1st experiment (NRF2): 1st, YES;; NRF2-dependency for H2O2-resistance, at 10 uM (experiment 3) - with & without H2O2 (NRF2): YES; NRF2-dependency for H2O2-resistance (experiment 3) (NRF2): YES; NRF2-dependency for H2O2-resistance, 1st experiment (NRF2): YES;; Reduction of H2O2-resistance capacity upon NRF2 knockdown, on average (NRF2): ~90%; NRF2-dependency of H2O2-resistance (NRF2 siRNA knockdown) (NRF2): significantly attenuate; Potential killing effects on HTB-178 tumor cells, 1st ([1]; Assay 1(y), at 10 uM): YES;; Potential killing effects on HTB-178 tumor cells, 2nd ([1]; Assay 1(y), at 10 uM, 2nd): YES.
9 | COc1ccc(C(=O)/C=C/c2ccccc2Br)c(OC)c1 [Gr-4B] | 0 | 0 | – | – | – | –
10 | O=C(Nc1nc(C23CC4CC(CC(C4)C2)C3)cs1)C(c1ccccc1)c1ccccc1 [O10] | 0 | 0 | – | – | – | –
11 | Cc1cc(C)c(C(=O)/C=C/c2ccccc2F)c(O)n1 [O18] | 1 | 1 | 2nd, partial. | partial. | YES | Potential targets: human protein targets (confirmed) (human protein targets): JAK2; NRF2-dependency for H2O2-resistance, at 10 uM (experiment 3) - with & without H2O2 (NRF2): YES; NRF2-dependency for H2O2-resistance (experiment 3) (NRF2): YES; NRF2-dependency of H2O2-resistance (NRF2 siRNA knockdown) (NRF2): significantly attenuate
12 | COc1cc2c(no[n+]2[O-])n2nnnc12 [O11] | 0 | 0 | – | – | – | Potential killing effects on HTB-178 tumor cells, 1st ([1]; Assay 1(y), at 10 uM): YES;
13 | CCc1ccccc1NC(=O)c1ccc([N+](=O)[O-])o1 [Gr-1C] | 0 | 0 | – | – | – | –
14 | Oc1ncnc2sc3c(c12)CCC3 [O14] | 0 | 0 | – | – | – | Potential targets: human protein targets (confirmed) (human protein targets): TRHR
15 | CC(C)(C)c1ccc(OCC(=O)Nc2ccc3c4c(cccc24)C(=O)NC3=O)cc1 [O22] | 1 | 1 | 2nd, partial. | partial. | YES | Potential targets: human protein targets (confirmed) (human protein targets): APOBEC3F, CFTR, NCOA3, OPRD1, OPRM1, PPARG, S1PR4, TDP1; NRF2-dependency for H2O2-resistance, at 10 uM - with H2O2, 1st experiment (NRF2): 1st, partial;; NRF2-dependency for H2O2-resistance, 1st experiment (NRF2): partial;; NRF2-dependency of H2O2-resistance (NRF2 siRNA knockdown) (NRF2): significantly attenuate
16 | O=C1NCCCc2cc(Cl)sc21 [O1] | 1 | 1 | 2nd, partial. | partial. | YES | NRF2-dependency for H2O2-resistance, at 10 uM - with H2O2, 1st experiment (NRF2): 1st, partial;; NRF2-dependency for H2O2-resistance, 1st experiment (NRF2): partial;; NRF2-dependency of H2O2-resistance (NRF2 siRNA knockdown) (NRF2): significantly attenuate
17 | COc1ccc(C(=O)/C=C/c2cccc(Cl)c2)c(OC)c1 [Gr-4C] | 0 | 0 | – | – | – | –
18 | COC(=O)CCc1sc2c(c1[N+](=O)[O-])NC(=O)CCC2 [O20] | 1 | 1 | 2nd, YES. | YES. | YES | NRF2-dependency for H2O2-resistance, at 10 uM - with H2O2, 1st experiment (NRF2): 1st, YES;; NRF2-dependency for H2O2-resistance, at 10 uM (experiment 3) - with & without H2O2 (NRF2): YES; NRF2-dependency for H2O2-resistance (experiment 3) (NRF2): YES; NRF2-dependency for H2O2-resistance, 1st experiment (NRF2): YES;; Reduction of H2O2-resistance capacity upon NRF2 knockdown, on average (NRF2): ~90%; NRF2-dependency of H2O2-resistance (NRF2 siRNA knockdown) (NRF2): significantly attenuate
19 | COc1ccc(C(=O)/C=C/c2ccc(F)cc2)c(OC)c1 [Gr-4A] | 0 | 0 | – | – | – | –
20 | CCc1ccc(Oc2nc3ccccn3c(=O)c2/C=C(\C#N)C(=O)NC2CCCCC2)cc1 [Gr-5A] | 0 | 0 | – | – | – | Potential killing effects on HTB-178 tumor cells, 1st ([1]; Assay 1(y), at 10 uM): YES;
21 | N=C1S/C(=C\c2cn(-c3ccccc3)nc2-c2cccs2)C(=O)N1c1nccs1 [Gr-6C] | 0 | 0 | 2nd, partial. | partial. | – | –
22 | CNC(=O)/C(C#N)=C/c1c(Oc2ccc(C(C)(C)C)cc2)nc2ccccn2c1=O [Gr-5D] | 0 | 0 | – | – | – | –
23 | Cc1cc(N)n(-c2ccccc2C(=O)O)n1 [Gr-6A] | 0 | 0 | – | – | – | Potential killing effects on HTB-178 tumor cells, 1st ([1]; Assay 1(y), at 10 uM): YES;
24 | O=C(Nc1cccc(Cl)c1)c1ccc([N+](=O)[O-])o1 [Gr-1D] | 0 | 0 | – | – | – | –
25 | COc1ccc(/C=C2\SC(=N)N(c3nccs3)C2=O)cc1 [O21] | 1 | 1 | – | – | YES | NRF2-dependency for H2O2-resistance, at 10 uM - with H2O2, 1st experiment (NRF2): 1st, partial;; NRF2-dependency for H2O2-resistance, at 10 uM (experiment 3) - with & without H2O2 (NRF2): YES; NRF2-dependency for H2O2-resistance (experiment 3) (NRF2): YES; NRF2-dependency for H2O2-resistance, 1st experiment (NRF2): partial;
26 | CCCC(=O)Nc1ccc(-c2cn3cccc(C)c3n2)cc1 [O12] | 0 | 0 | – | – | – | Potential killing effects on HTB-178 tumor cells, 1st ([1]; Assay 1(y), at 10 uM): YES;
